Consider 39 molecules from patent US20240368174A1, “Antiviral Heterocyclic Compounds” (Enanta Pharmaceuticals, Inc., priority 2023, published 2024).

The structures appear in SMILES notation.

The first assay concerns HMPV clinical isolate A2 strain TN 94-49. As to the kind of experiment: HMPV antiviral assay, Method 2 (LLC-MK2 cells with CP-100-356, ATP-Lite). The assay is classed as cell-based. Conditions: human metapneumovirus, 168 h; hMPV A2 TN/94-49, LLC-MK2 cells with 4 μM CP-100-356, 7 days, ATP-Lite. The method in brief: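 LLC-MK2 rhesus kidney cells (5,000/well) infected in suspension with HMPV A2 TN 94-49 at MOI 0.16, in serum-free medium with final 2 μg/mL TPCK-trypsin and 2 μM CP-100-356. Compounds tested in duplicate from 200 nM, 2.5-fold, 10 points; 7 days at 37 °C. Cell health by ATP-Lite luminescence; EC50 by four-parameter fit.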
One may read the EC50 as the midpoint of the concentration-response curve. High values mean a less potent agent, low ones a more potent agent. `COc1cc(C(=O)NC[C@](O)(c2cc3c(c(-c4ccn5nc(C)cc5c4)n2)OC[C@]3(C)C(N)=O)C2CC2)cc2cn(C3CC3)nc12` [Example 838]: the EC50 was over 200 nM.
For `COc1cccc2c1ccn2-c1nc([C@@](O)(CNC(=O)c2cc(OC)c3nn(C4CC4)cc3c2)C2CC2)cc2c1OC[C@]2(C)C(N)=O` [Example 839], the EC50 is under 200 nM.
The same measure, in the same setting: under `COc1cc(C(=O)NC[C@@](O)(c2cc3c(c(-n4ccc5cnccc54)n2)OC[C@]3(C)C(N)=O)C2CC2)cc2cn(C3CC3)nc12` [Example 840] stands over 200 nM; under `COc1cc(C(=O)NC[C@](O)(c2cc3c(c(-n4ccc5cnccc54)n2)OC[C@]3(C)C(N)=O)C2CC2)cc2cn(C3CC3)nc12` [Example 841], under 200 nM; under `COc1cc(C(=O)NC[C@](O)(c2cc3c(c(-n4ccc5ccccc54)n2)OC[C@]3(C)C(N)=O)C(F)(F)F)cc2cn(C(F)F)nc12` [Example 843], under 200 nM.
`COc1cc(C(=O)NC[C@](O)(c2cc3c(c(-c4cc(C(F)(F)F)ncc4F)n2)OC[C@]3(C)C(N)=O)C(F)(F)F)cc2cn(C3CC3)nc12` [Example 845] showed an EC50 of under 200 nM.
`COc1cc(C(=O)NC[C@](O)(c2cc3c(c(-n4ccc5c(C(F)(F)F)cccc54)n2)OC[C@]3(C)C(N)=O)C2CC2)cc2cn(C3CC3)nc12` [Example 869] yielded an EC50 of over 200 nM.
`COc1cc(C(=O)NCC(O)(c2cc3c(c(-c4cc(C(F)(F)F)ncc4Cl)n2)OC[C@]3(C)C(N)=O)C2CC2)cc2cn(C3CC3)nc12` (stereo partly drawn) [Example 870] showed an EC50 of over 200 nM.
Molecule `COc1cc(C(=O)NC[C@](O)(c2cc3c(c(-c4ccnc(C)c4Cl)n2)OC[C@]3(C)C(N)=O)C2CC2)cc2cn(C3CC3)nc12` [Example 871] returned an EC50 of under 200 nM.
`COc1nccc(-c2nc([C@](O)(CNC(=O)c3cc(OC)c4nn(C5CC5)cc4c3)c3cccc(F)c3)cc3c2OC[C@]3(C)C(N)=O)c1Cl` [Example 876] came in with an EC50 of over 200 nM.
In turn, `COc1nccc(-c2nc([C@@](O)(CNC(=O)c3cc(OC)c4nn(C5CC5)cc4c3)c3cccc(F)c3)cc3c2OC[C@]3(C)C(N)=O)c1Cl` [Example 877] gave an EC50 of under 200 nM.
As to `COc1cc(C(=O)NC[C@](O)(c2cc3c(c(-c4ccnc(C)c4Cl)n2)OC[C@]3(C)C(N)=O)C(F)(F)F)cc2cn(C3CC3)nc12` [Example 883], the EC50 was over 200 nM.
For `COc1nccc(-c2nc([C@@](O)(CNC(=O)c3cc(OC)n4nc(C5CC5)cc4c3)C(C)C)cc3c2OC[C@]3(C)C(N)=O)c1Cl` [Example 890], the EC50 is over 200 nM.
Regarding `COc1nccc(-c2nc([C@@](O)(CNC(=O)c3cc(OC)c4nc(C5CC5)cn4c3)C(C)C)cc3c2OC[C@]3(C)C(N)=O)c1Cl` [Example 891], the EC50 is over 200 nM.
Same read-out and setting: under `COc1nccc(-c2nc([C@@](O)(CNC(=O)c3cc(OC4CC4)c4nn(C5(F)CC5)cc4c3)C(C)C)cc3c2OC[C@]3(C)C(N)=O)c1Cl` [Example 892] stands under 200 nM.
Still for that read-out and setting: under `COc1nccc(-c2nc([C@@](O)(CNC(=O)c3cc(OC4CC4)c4nn(C5CC5)cc4c3)C(C)C)cc3c2OC[C@]3(C)C(N)=O)c1Cl` [Example 893] stands under 200 nM; under `COc1nccc(-c2nc([C@@](O)(CNC(=O)c3cc(OC4CC4)c4nn(C(F)F)cc4c3)C(C)C)cc3c2OC[C@]3(C)C(N)=O)c1Cl` [Example 894], over 200 nM.
On the same count and under the same terms, the result for `COc1nccc(-c2nc([C@@](O)(CNC(=O)c3cc(OC)c4nn(C5(F)CC5)cc4c3)C3CC(F)(F)C3)cc3c2OC[C@]3(C)C(N)=O)c1Cl` [Example 896] reads under 200 nM; that for `COc1nccc(-c2nc([C@@](O)(CNC(=O)c3cc(OC)c4nc(C5CC5)oc4c3)C3CC(F)(F)C3)cc3c2OC[C@]3(C)C(N)=O)c1Cl` [Example 897], over 200 nM.
Take `COc1nccc(-c2nc([C@@](O)(CNC(=O)c3cc(OC4CC4)c4nn(C(F)F)cc4c3)C3CC(F)(F)C3)cc3c2OC[C@]3(C)C(N)=O)c1Cl` [Example 898]: the EC50 was over 200 nM.
`COc1cc(C(=O)NC[C@](O)(c2cc3c(c(-n4ncc5c(F)cccc54)n2)OC[C@]3(C)C(N)=O)C2CC2)cc2cc(Cl)c(C)nc12` [Example 899] returned an EC50 of over 200 nM.
`COc1cc(-c2nc([C@@](O)(CNC(=O)c3cc(OC4CC4)c4nn(C5CC5)cc4c3)c3ccccc3)cc3c2OC[C@]3(C)C(N)=O)c(F)cn1` [Example 900] showed an EC50 of over 200 nM.
Molecule `COc1nccc(-c2nc([C@@](O)(CNC(=O)c3cc(OC4CC4)c4nn(C(F)F)cc4c3)c3ccccc3)cc3c2OC[C@]3(C)C(N)=O)c1Cl` [Example 901] registered an EC50 of under 200 nM.
`COc1nccc(-c2nc([C@@](O)(CNC(=O)c3cc(OC4CC4)c4nn(C(F)F)cc4c3)c3cccc(F)c3)cc3c2OC[C@]3(C)C(N)=O)c1Cl` [Example 902] displayed an EC50 of over 200 nM.
`COc1cc(C(=O)NC[C@](O)(c2cc3c(c(-c4ccnc(C5CCOCC5)c4Cl)n2)OC[C@]3(C)C(N)=O)C2CC2)cc2cn(C3CC3)nc12` [Example 903] showed an EC50 of over 200 nM.
The molecule `COc1cc(C(=O)NC[C@](O)(c2cc3c(c(-c4ccnc(C5CCOCC5)c4Cl)n2)OC[C@]3(C)C(N)=O)C2CC2)cc2cn(C(F)F)nc12` [Example 904] came in with a 50% effective concentration (EC50) of over 200 nM.
As to `COc1cc(C(=O)NC[C@](O)(c2cc3c(c(-c4ccnc(C5CCOCC5)c4Cl)n2)OC[C@]3(C)C(N)=O)C2CC2)cc2cn(C3(F)CC3)nc12` [Example 905], the EC50 is over 200 nM.
`COc1cc(C(=O)NC[C@](O)(c2cc3c(c(-c4ccnc(C5CCOCC5)c4Cl)n2)OC[C@]3(C)C(N)=O)C2CC2)cc2oc(C3CC3)nc12` [Example 906] displayed an EC50 of over 200 nM.
`COc1cc(C(=O)NC[C@](O)(c2cc3c(c(-c4ccnc(C(C)C)c4Cl)n2)OC[C@]3(C)C(N)=O)C2CC2)cc2cn(C(F)F)nc12` [Example 907]: the EC50 is over 200 nM.
Consider `COc1cc(C(=O)NC[C@](O)(c2cc3c(c(-c4ccnc(C(C)C)c4Cl)n2)OC[C@]3(C)C(N)=O)C2CC2)cc2cn(C3(F)CC3)nc12` [Example 908], for which the EC50 was over 200 nM.
Molecule `COc1cc(C(=O)NC[C@](O)(c2cc3c(c(-c4ccnc(C(C)C)c4Cl)n2)OC[C@]3(C)C(N)=O)C2CC2)cc2oc(C3CC3)nc12` [Example 909] came in with an EC50 of over 200 nM.
Consider `COc1cc(C(=O)NC[C@](O)(c2cc3c(c(-c4ccnc(C(C)C)c4Cl)n2)OC[C@]3(C)C(N)=O)C2CC2)cc2cc(C3CC3)nn12` [Example 910], for which the 50% effective concentration (EC50) was over 200 nM.
`COc1cc(C(=O)NC[C@](O)(c2cc3c(c(-c4ccnc(C(C)C)c4Cl)n2)OC[C@]3(C)C(N)=O)C2CC2)cn2cc(C3CC3)nc12` [Example 911] came in with an EC50 of over 200 nM.
`CC(C)c1nccc(-c2nc([C@@](O)(CNC(=O)c3cc(OC4CC4)c4nn(C5(F)CC5)cc4c3)C3CC3)cc3c2OC[C@]3(C)C(N)=O)c1Cl` [Example 912]: the EC50 is over 200 nM.
`CC(C)c1nccc(-c2nc([C@@](O)(CNC(=O)c3cc(OC4CC4)c4nn(C5CC5)cc4c3)C3CC3)cc3c2OC[C@]3(C)C(N)=O)c1Cl` [Example 913] gave an EC50 of over 200 nM.
Take `CC(C)c1nccc(-c2nc([C@@](O)(CNC(=O)c3cc(OC4CC4)c4nn(C(F)F)cc4c3)C3CC3)cc3c2OC[C@]3(C)C(N)=O)c1Cl` [Example 914]: the EC50 was over 200 nM.

Another assay has the same test system. As to the kind of experiment: HMPV antiviral assay, Method 1 (LLC-MK2 cells, ATP-Lite). The assay is classed as cell-based. Conditions: human metapneumovirus, hMPV A2 TN/94-49, LLC-MK2 cells. How it is done:
In vitro HMPV antiviral activity was evaluated using the clinical isolate A2 strain TN 94-49 (obtained from Dr. John Williams, Vanderbilt University, Tennessee) and LLC-MK2 cells (ATCC #CCL-7), an immortalized kidney epithelial cell line from Macaca mulatta. Compounds were resuspended in dimethyl sulfoxide (DMSO) at 10 mM, serially diluted and added to a 384-well source plate. Subsequently, the compounds were diluted and transferred onto 384-well assay plates using the Echo-650 automated liquid handling system (Beckman Coulter, Indiana). The test compounds were assessed in duplicate at a top concentration of 2 μM followed by 2.5-fold serial dilutions to give a total of 10 concentration points. DMSO control wells were also included on the assay plates and were either infected or not, acting as positive and negative controls. A2 TN 94-49 virus infections were performed in-suspension with LLC-MK2 cells. The cells were washed twice with PBS and removed from the cell-culture flask with 0.25% trypsin-EDTA (Thermo Fisher Scientific, MA). The trypsin-EDTA was inactivated by resuspending in 2% fetal bovine serum (FBS) and OptiMEM (ThermoFisher Scientific, MA) containing 1% penicillin-streptomycin. Cells were pelleted by centrifuging for 5 minutes at 800 rpm, the supernatant was removed, and cells were re-suspended and washed in PBS plus 100 μg/mL CaCl2). This step was performed twice. Cells were then re-suspended in serum-free (SF)-OptiMEM containing 4 μg/mL TPCK-Trypsin (Sigma Aldrich, MO), 1% penicillin-streptomycin (ThermoFisher Scientific, MA) and 100 μg/mL CaCl2). Cells were counted and seeded at a density of 5,000 cells/well, 12.5 μL/well. Virus infections were done at a multiplicity of infection (MOI) of 0.005 with 12.5 μL added per well. Virus infections were performed in infection media which contained SF-OptiMEM, 100 μg/mL CaCl2) and 1% penicillin-streptomycin. HMPV viral stocks are suspended in infection media+5% glycerol, thus an equal volume of infection media+5% glycerol was added to uninfected wells to equalize the final % glycerol across all wells of the assay plate. The final concentration of TPCK-trypsin was 2 μg/mL. The assay plates were incubated at 37° C., 5% CO2 for 7 days. After 7 days incubation, 12.5 μL of ATP-Lite (PerkinElmer, MA) was added to each well and the raw luminescence values were determined using the Envision 2104 (Perkin Elmer, MA). The average of the raw luminescence values for the cells and virus only positive control wells was subtracted from all conditions tested and the percent cell health was determined by dividing these values by the average of the cells only negative control wells. EC50 values were then calculated by non-linear regression using a four-parameter curve logistic equation. The curve fit model employed was XLFit Dose Response One Site Model 200: y=(A+(B/(1+((x/C)^D)))), where A is the minimum y value, B is the maximum y value, C is the log EC50 value, and D is the slope factor.
Molecule `COc1cc(C(=O)NC[C@](O)(c2cc3c(c(-c4cc(Cl)c(F)cc4F)n2)OC[C@]3(C)C(N)=O)C2CC2)cc2cc(C(F)(F)F)cnc12` [Example 1] yielded an EC50 of over 500 nM.
With `C[C@]1(C(N)=O)COc2c1cc([C@@](O)(CNC(=O)c1cc(OC3CC3)c3nn(C4CC4)cc3c1)C1CC1)nc2-c1cc(Cl)c(F)cc1F` [Example 2], the EC50 was under 500 nM.
The molecule `C[C@]1(C(N)=O)COc2c1cc([C@@](O)(CNC(=O)c1cc(OC(F)F)c3nn(C4CC4)cc3c1)C1CC1)nc2-c1cc(F)c(F)cc1F` [Example 6] returned an EC50 of under 500 nM.
